We go through three compounds from patent US20080318970A1, “Treatment of Infectious Diseases” (priority 2004, published 2008).

The subject of one data set is HIV-1 strain HTLV-IIIB. Nature of the data set: Inhibition of HIV-1 replication in MT4 cells (MTT assay). Format: cell-based. As to conditions: Human immunodeficiency virus 1, IIIB, 144 h; compound alone; MT4 cells, six days. The procedure:
Each experiment was repeated in tripleduplicate. MIC values represent the mean values of two separate experiments.
The HIV-1 strain HTLV-IIIB were propagated in H9 cells at 37° C., 5% CO2 using RPMI 1640 with 10% heat-inactivated foetal calf serum (FCS) and antibiotics (growth medium). Culture supernatant was filtered ([…]), aliquotted, and stored at −80° C. until use. The HIV-1 strain was obtained from NIH AIDS Research and Reference Program.
(§1) Compounds were examined for possible antiviral activity against strain 111B of HIV-1 using MT4 cells as target cells. MT4 cells were incubated with virus (0.005 MOI) and growth medium containing the test dilutions of compound(s) for six days in parallel with virus-infected and uninfected control cultures without compound added. Expression of HIV in the cultures was indirectly quantified using the MTT assay as previously described. Compounds mediating less than 30% reduction of HIV expression were considered without biological activity. Compounds were tested in parallel for cytotoxic effect in uninfected MT4 cultures containing the test dilutions of compound as described above. Cultures for test of both antiviral activity and cytotoxic effect were set up in tripleduplicates, […] per culture in micro titre plates.
The 50% inhibitory concentration was determined by interpolation from the plots of percent inhibition versus concentration of compound.
EC50 is defined as the effective concentration that inhibits 50% of viral production, 50% of viral infectivity, or 50% of the virus-induced cytopathic effect.

Data set [1] is described as follows: Cytotoxic effect in uninfected MT4 cultures. Format: cell-based. As to conditions: human, uninfected MT4 cells; compound alone; uninfected MT4. The procedure: as §1
CC50 is defined as the inhibitory concentration that reduces cellular growth or viability of uninfected cells by 50%.

The subject of a further data set is E. coli 331ME. Nature of the data set: Checkerboard combination study (FIC index). The format is cell-based. The settings on record: MDR isolate. The procedure: E. coli 331 ME. In vivo-selected multidrug resistant clinical isolates of E. coli. Strains were isolated from a patient with severe cystitis/urosepsis. Resistant to tetracycline, beta-lactams, fluoroquinolones, chloramphenicol and aminoglycosides.
(§2) The synergistic effect was studied by checkerboard combination studies exposing cells to 0-64 μg/ml anti-infective agent in the absence or presence of trans-flupenthixol, cis-flupenthixol or trans-clopenthixol. Each experiment was repeated in tripleduplicate. MIC values represent the mean values of two separate experiments,
(§3) A log phase culture of bacteria was diluted with fresh pre-warmed medium and adjusted to a defined OD at 600 nm in order to give a final concentration of 1×10^4 bacteria/ml medium in each well. Each chemosensitising compound was added to the bacterial culture in the wells in two-fold dilutions in order to give final concentrations ranging from 0 to 8 μg/ml. Anti-infective agent was added to the bacterial culture in the wells in two-fold dilutions in order to give final concentrations ranging from 0 to 64 μg/ml Trays were incubated at 37° C. for 16 h. Wells were assessed visually for growth. The Fractional Inhibitory Concentration (FIC) was calculated for each anti-infective agent alone and in combination with trans-flupenthixol, cis-flupenthixol or trans-clopenthixol. The following formulae were used to calculate the FIC index:
(§4) FIC=FICchemosensitising compound+FICanti-infective agent
(§5) FICchemosensitising compound=(MICchemosensitising compound+anti-infective agent)/(MICchemosensitising compound)
(§6) FICanti-infective agent=(MICanti-infective agent+chemosensitising compound/(MICanti-Infective agent)
(§7) Synergy was defined as a FIC index of <0.5.

Another data set has as its system P. aeruginosa 432b. The experiment in a line: Checkerboard combination study (FIC index). The format is cell-based. As to conditions: isolate resistant (R). The procedure: P. aeruginosa 432b. Clinical multidrug resistant isolate. Resistant to tetracycline, beta-lactams, fluoroquinolones, and aminoglycosides. Beta-lactamase producing, changes in Penicillin Binding Proteins and changes in Outer Membrane Proteins.
as §2, §3, §4, §5, §6, §7

In another data set the test system is E. coli LN 3164. The experiment in a line: Checkerboard combination study (FIC index). Format: cell-based. As to conditions: MDR isolate. The method, then: E. coli, LN 3164. Acr AB-ToIC MDR in vitro-selected mutant. Resistant to tetracycline, beta-lactams, fluoroquinolones, chloramphenicol and aminoglycosides.
as §2, §3, §4, §5, §6, §7

The subject of another data set is E. faecalis F86. The experiment in a line: Checkerboard combination study (FIC index). The format is cell-based, Enterococcus faecalis. As to conditions: anti-infective agent Dicloxacillin; isolate susceptible (S). The procedure: Enterococcus faecalis, F86. Susceptible clinical isolate. No development of resistance.
as §2, §3, §4, §5, §6, §7

The next data set concerns S. aureus E45. Nature of the data set: Checkerboard combination study (FIC index). Format: cell-based, Staphylococcus aureus. The settings on record: isolate resistant (R). The procedure:
Staphylococcus aureus E45 MRSA. Clinical isolate. Resistant to methicillin. Susceptible to teicoplanin chloramphenicol, fosfomycin, netilmicin and vancomycin.
as §2, §3, §4, §5, §6, §7

Another data set concerns S. aureus O11. The experiment in a line: Checkerboard combination study (FIC index). Format: cell-based, Staphylococcus aureus. The settings on record: anti-infective agent Dicloxacillin; isolate susceptible (S). The method, then: Staphylococcus aureus O11. Clinical isolate resistant to penicillin. Susceptible to methicillin, tetracycline, beta-lactams, fluoroquinolones, chloramphenicol and aminoglycosides.
as §2, §3, §4, §5, §6, §7

The test system of data set [2] is E. coli, LN 3164. The experiment in a line: Effect of chemosensitising compounds on DR (DR ratio) with ciprofloxacin, microtiter assay. Format: cell-based. As to conditions: MIC ciprofloxacin alone / MIC ciprofloxacin + chemosensitising compound at ¼ of its MIC; E. coli LN 3164. The method, then: The effects of the chemosensitising compounds on DR were studied by the microtiter assay described above by exposing cells to 0-64 μg/ml anti-infective drug in the absence or presence of chemosensitising compound. Each experiment was repeated in tripleduplicate. MIC values represent the mean values of two separate experiments.
A log phase culture of bacteria was diluted with fresh pre-warmed medium and adjusted to a defined OD at 600 nm in order to give a final concentration of 1×10^4 bacteria/ml medium in each well. […] Anti-infective agent was added to the bacterial culture in the wells in two-fold dilutions in order to give final concentrations ranging from 0 to 64 μg/ml. Trays were incubated at 37° C. for 16 h. The DR ratio was defined as the ratio between the MIC value for anti-infective agent alone divided by the MIC for the anti-infective agent in the presence of the chemosensitising compound. This ratio represents the increase in apparent potency of the anti-infective agent caused by the chemosensitising compound, and may be expressed as
DR ratio=(MICanti-infective agent)/(MICanti-infective agent+chemosensitising compound)

The conditions of data set [3]: clinical trial versus placebo, Johnstone et al.; cited from earlier work.
Data set [4] concerns E. coli, LN 3164. The experiment in a line: MIC susceptibility test, microdilution broth method (NCCLS), chemosensitising compound alone. Format: cell-based. As to conditions: 37° C., 16 h. The method, then: Bacteria were sub-cultured on Mueller-Hinton agar plates and incubated over night at 37° C. Pre-warmed Mueller-Hinton broth was inoculated with colonies from the plate and incubated for approximately three hours to achieve a log phase culture. The log phase culture of bacteria was diluted with fresh pre-warmed medium and adjusted to a defined Optical Density (OD) at 600 nm in order to give a final assay concentration of 1×10^4 bacteria/ml medium.
Cell growth was tested using the MIC susceptibility tests by use of the microdilution broth method in accordance to the NCCLS Guidelines (NCCLS Guidelines, Methods for Dilution Antimicrobial Susceptibility Tests for Bacteria That Grow Aerobically; Approved Standard, Sixth Edition, Volume 23; Number 2). A 100% Mueller-Hinton broth and a bacterial concentration of 1×10^4/ml were used.
A log phase culture of bacteria was diluted with fresh pre-warmed medium and adjusted to a defined OD at 600 nm in order to give a final concentration of 1×10^4 bacteria/ml medium in each well. Each chemosensitising compound was added to the bacterial culture in the wells in two-fold dilutions in order to give final concentrations ranging from 8 to 500 μg/ml. Trays were incubated at 37° C. for 16 h. Minimal Inhibitory Concentration, (MIC) is defined as the lowest inhibitory concentration showing no visible growth according to the NCCLS Guidelines.

The test system of a further data set is E. faecalis F84. The experiment in a line: Checkerboard combination study (FIC index). The format is cell-based, Enterococcus faecalis. As to conditions: MDR isolate. The procedure: Enterococcus faecalis, F84. A multidrug resistant clinical isolate.
as §2
as §3, with “Each chemosensitising compound was added to the bacterial culture in the wells in two-fold dilutions in order to give final concentrations ranging from 0 to 8 μg/ml.” left out
as §4, §5, §6, §7

The subject of data set [5] is non-resistant mouse pathogen isolate of Streptococcus pneumoniae. The settings on record: Kristiansen et al. 1998; cited from earlier work.
Setting [6] is: anti-infective agent Ciprofloxacin.
Setting [7] is: anti-infective agent Gentamicin.
The mark [8] stands for this setting: anti-infective agent Piperacillin.
Where [9] appears, read: anti-infective agent Dicloxacillin.

For orientation: EC50 means the concentration that produces a half-maximal response. What is called CC50 is the concentration at which the toxic effect on the cells reaches its halfway point. Consider `Cc1cn([C@H]2C[C@H](N=[N+]=[N-])[C@@H](CO)O2)c(=O)[nH]c1=O` [AZT, 3′-Azido-3′-deoxythymidine, reference compound], for which the response with HIV-1 strain HTLV-IIIB was half-maximal at 50 nM (EC50). Besides, in [1], the CC50 at 6 days was more than 3000 nM.
As a reminder, the MIC is the lowest concentration that inhibits growth of the organism. Consider `OCCN1CCN(CC/C=C2\c3ccccc3Sc3ccc(C(F)(F)F)cc32)CC1` [trans-flupenthixol], for which the FIC index with E. coli 331ME (setting [6]) was 0.006; with E. coli 331ME (setting [7]) it was 0.02; with E. coli 331ME (setting [8]) it was 0.13; in the data set with P. aeruginosa 432b (setting [6]), 0.03; in the data set with P. aeruginosa 432b (setting [7]), 0.06; with P. aeruginosa 432b (setting [8]), 0.13. The FIC index in the data set with E. coli LN 3164 (setting [6]) came out at 0.13; in the data set on E. coli LN 3164 (setting [7]), 0.063; in the data set with E. coli LN 3164 (setting [8]), 0.13; with E. faecalis F86, 0.50; in the data set on S. aureus E45 (setting [9]), 0.13; with S. aureus E45 (anti-infective agent Fucidic acid), 0.13. Also, the FIC index in the data set on S. aureus O11 is reported as 0.50; in the data set with E. faecalis F84 (setting [9]) it was 0.06; with E. faecalis F84 (anti-infective agent Vanomycin), 0.13. Moreover, the DR ratio with E. coli, LN 3164 [2] amounted to 64. Also, the “anti-psychotic effect (in words)” value in data set [3] is “no activity as an anti-psychotic”. In addition, in the data set on E. coli, LN 3164 [4], the MIC stood at 32 µg/mL.
As for penicillin, the MIC in data set [5] was 0.02 µg/mL.
